Eight compounds from publication PMC10901950, “Neuroprotective and Anti-inflammatory Effects of Rubiscolin-6 Analogs with Proline Surrogates in Position 2” (Neurochemical Research, 2023) can be followed below.

Numbered stars: 1 amine (or outer) side, 2 acyl side, 3 side chain; on linkers, the order of the positions; unused ones are H or OH. Square brackets hold non-standard residues; d marks the D form. Ends that are not written are not given here. Peptide text beside a SMILES is read from it. Nip(3R) = O=C([C@@H]1CCCN([*:1])C1)[*:2]; Dmt = Cc1cc(O)cc(C)c1C[C@H](N)C(=O)O; Inp = O=C(O)C1CCNCC1

Series [1] addresses T1, µ-opioid receptor (Homo sapiens, UniProt P35372). The series can be described thus: Calcium mobilisation assay, CHO cells with Gαqi5. The class given is cell-based. Also noted: expressed in transfected cells; gift from Prof; Girolamo Calo, University of Padova. The settings on record: for µ-opioid receptors pEC50 (CL95%): agonist potency, mean ± SEM of three experiments in triplicate; for µ-opioid receptors pEC50 (CL95%) / µ-opioid receptors α ± SEM: Inactive = inactive as an agonist up to 1 µM; for µ-opioid receptors α ± SEM: intrinsic activity, Emax ratio to Dermorphin; for EC50: read-out: µ-opioid receptors pEC50 (CL95%) (converted). On the procedure:
(§1) Chinese Hamster Ovary (CHO) cells stably co-expressing human recombinant µ- or κ-opioid receptors and the C-terminally modified Gαqi5, and CHO cells co-expressing the human recombinant δ-opioid receptors and the GαqG66Di5 chimeric protein (a generous gift from Prof. Girolamo Calo, University of Padova, Italy) were used in calcium mobilization assay, that was performed as reported in detail elsewhere. Cells were cultured in Dulbecco’s Modified Eagle’s Medium (DMEM)/Ham’s F12 (1:1) culture medium supplemented with 10% (v/v) Fetal Bovine Serum (FBS), penicillin (100 IU/mL), streptomycin (100 µg/mL), L-glutamine (2 mM), fungizone (1 µg/mL), geneticin (G418; 200 µg/mL) and hygromycin B (100 µg/mL). Cell cultures were kept at 37 °C in 5% CO2/humidified air. When confluence was reached (3–4 days), cells were seeded at a density of 50,000 cells/well into 96-well black, clear-bottom plates. After 24 h incubation, the cells were loaded with a medium supplemented with probenecid (2.5 mM), calcium-sensitive fluorescent dye Fluo-4 AM (3 µM), pluronic acid (0.01%), and HEPES (20 mM) and kept for 30 min at 37 °C. Then, the loading solution was aspirated, and 100 µL/well of assay buffer (HBSS supplemented with 20 mM HEPES, 2.5 mM probenecid, and 500 µM Brilliant Black) was added.
(§2) The tested peptides were diluted in the HBSS/HEPES (20 mM) buffer (containing 0.005% BSA) and placed into 96-well plates. The range of concentrations tested was 10 µM–1 × 10^–6 µM. After placing both plates (cell culture and compound plate) into the FlexStation II (Molecular Device, Union City, CA, USA), the online additions were carried out in a volume of 50 µL/well and the fluorescence changes were measured.
(§3) Concentration–response curves were fitted with the four-parameter logistic, nonlinear regression model: Effect=baseline+Emax- baseline/1+10^logEC50- Xn where X is the agonist concentration and n is the Hill coefficient. Ligand efficacies, expressed as the intrinsic activity (α), were calculated as the Emax ratio of the tested compound and the standard agonist.
In general terms: Calcium flux is commonly read through the fluorescence of an indicator in the cells.

The next series addresses δ-opioid receptor (Homo sapiens, UniProt P41143). The series can be described thus: Calcium mobilisation assay, CHO cells with GαqG66Di5. The class given is cell-based. Also noted: expressed in transfected cells; host or cells: CHO cells; gift from Prof; Girolamo Calo, University of Padova. The settings on record: for δ-opioid receptors pEC50 (CL95%): agonist potency, mean ± SEM of three experiments in triplicate; for δ-opioid receptors pEC50 (CL95%) / δ-opioid receptors α ± SEM: Inactive = inactive as an agonist up to 1 µM; for δ-opioid receptors α ± SEM: intrinsic activity, Emax ratio to DPDPE; for EC50: read-out: δ-opioid receptors pEC50 (CL95%) (converted). The protocol: as §1, §2, §3

Series [2] can be described thus: Degradation by the brain homogenate. Type of series: in vitro ADME. The settings on record: rat brain homogenate 100 µL (10 mg protein/mL, 50 mM Tris-HCl pH 7.4) + 100 µL peptide 0.5 mM, final 200 µL, 37 °C, 0-60 min, HPLC read-out, ln 2/k; mean ± SEM of four independent experiments in duplicate; read-out: T0.5 (degradation half-life). The protocol:
The degradation studies were performed on the rat brain homogenate according to the modified method described elsewhere. Briefly, rat brains, after isolation and homogenization in 50 mM Tris–HCl (pH 7.4), were stored at − 80 °C until used. During the test, the aliquots (100 µL, 10 mg protein/mL) were incubated with 100 µL of a peptide (0.5 mM) over 0, 7.5, 15, 22.5, 30, and 60 min at 37 °C in a final volume of 200 µL. The reaction was stopped at the required time by placing the tube on ice and acidifying it with 20 µL of 1 M aqueous HCl solution. Then, the aliquots were centrifuged at 20,000×g for 10 min at 4 °C. The obtained supernatants were filtered and analyzed by HPLC on a Vydac C18 column (5 µm, […]) using the solvent system of 0.1% trifluoroacetic acid (TFA) in water (A) and 80% acetonitrile in water containing 0.1% TFA (B) and a linear gradient of 0–100% B over 25 min. The rate constants of degradation (k) were obtained as described earlier by a least square linear regression analysis of logarithmic peak areas [ln(A/AD)], where A—the amount of peptide remaining, AD—the initial amount of peptide, versus time. Degradation half-lives (t1/2) were calculated from the rate constants as ln 2/k.

The target of a further series is T2, κ-opioid receptor (Homo sapiens, UniProt P41145).
T2 construct: purchased; host or cells: CHO cells (membranes)
The series can be described thus: Opioid receptor binding assay, [3H]U-69593 competition. The settings on record: CHO cell membranes, 0.5 nM [3H]U-69593, 25 °C, 120 min; mean ± SEM of four experiments in duplicate; read-out: Ki KOR. On the procedure:
(§4) The opioid receptor binding assays were performed using the modified method described elsewhere. Briefly, commercial membranes of Chinese Hamster Ovary (CHO) cells transfected with human opioid receptors were used. The binding affinities for µ-, δ- and κ-opioid receptors were determined by radioligand competition analysis using [^3H]DAMGO, [^3H]deltorphin-2, and [^3H]U-69593, respectively. Membranes were incubated at 25 °C for 120 min with appropriate concentrations of a tested peptide in the presence of 0.5 nM radioligand in a total volume of 0.5 mL of 50 mM Tris/HCl (pH 7.4) containing bovine serum albumin (BSA) (1 mg/mL), bacitracin (50 µg/mL), bestatin (30 µM), and captopril (10 µM). Non-specific binding was determined in the presence of 1 µM naloxone. Incubations were terminated by the rapid filtration through the GF/B Whatman (Brentford, UK) glass fibre strips (pre-soaked for 2 h in 0.5% (v/v) […]) using Millipore Sampling Manifold (Billerica, MA, USA). The filters were washed thrice with 4 mL of ice-cold Tris buffer solution. Packard Tri-Carb 2100 TR liquid scintillation counter (Ramsey, MN, USA) was used to measure the bound radioactivity after overnight extraction of the filters in 4 mL of a Perkin Elmer Ultima Gold scintillation fluid (Wellesley, MA, USA). The data were analyzed by a nonlinear least square regression analysis computer program Graph Pad PRISM 6.0 (Graph Pad Software Inc., San Diego, CA, USA). The values of the inhibitory constants (Ki) were calculated according to the equation of Cheng and Prusoff.
(§5) The ability of R-6 and its new analogs to bind to µ-, δ- and κ-opioid receptors was determined by competitive binding assays against [^3H]DAMGO, [^3H][Ile^5,6]deltorphin-2 and [^3H]U-69593, respectively, using membranes of CHO cells transfected with opioid receptors and are summarized in Table 2.

Series [3] deals with T1, µ-opioid receptor. The series can be described thus: Opioid receptor binding assay, [3H]DAMGO competition. The arrangement: purchased; host or cells: CHO cells (membranes). The settings on record: CHO cell membranes, 0.5 nM [3H]DAMGO, 25 °C, 120 min; mean ± SEM of four experiments in duplicate; read-out: Ki MOR. On the procedure: as §4, §5

For orientation: half-life means the time needed for the level to fall by half in the phase considered. As usually defined, the Ki is the equilibrium dissociation constant of an inhibitor or competing ligand from its target. Consider `CC(C)C[C@H](NC(=O)[C@@H]1CCCN(C(=O)[C@@H](N)Cc2ccc(O)cc2)C1)C(=O)N[C@@H](CC(=O)O)C(=O)N[C@@H](CC(C)C)C(=O)N[C@@H](Cc1ccccc1)C(=O)O` [analog 2, Tyr-(R)-Nip-Leu-Asp-Leu-Phe-OH] (H-Y[Nip(3R)]LDLF-OH), for which, at µ-opioid receptor [1], the “µ-opioid receptors pEC50 (CL95%)” value is “Inactive” and the “µ-opioid receptors α ± SEM” value is on record as “Inactive”. On δ-opioid receptor, the “δ-opioid receptors pEC50 (CL95%)” value is reported as “Inactive” and the “δ-opioid receptors α ± SEM” value is on record as “Inactive”. Moreover, the half-life at 0.25 mM in series [2] came out at 25.5 ± 0.4 min. The inhibitory constant (Ki) at κ-opioid receptor was more than 1 µM. Further, the inhibition constant (Ki) on µ-opioid receptor [3] is more than 1 µM.
Regarding YPLDLF [R-6, rubiscolin-6], at µ-opioid receptor [1], the “µ-opioid receptors pEC50 (CL95%)” value is given as “Inactive” and the “µ-opioid receptors α ± SEM” value is given as “Inactive”. Moreover, the EC50 on δ-opioid receptor was 5.62 µM. Moreover, the half-life at 0.25 mM in series [2] was 14.3 ± 0.8 min. Moreover, the Ki on κ-opioid receptor is more than 1 µM. Besides, the Ki at µ-opioid receptor [3] was more than 1 µM.
For `CC(C)C[C@H](NC(=O)C1CCN(C(=O)[C@@H](N)Cc2ccc(O)cc2)CC1)C(=O)N[C@@H](CC(=O)O)C(=O)N[C@@H](CC(C)C)C(=O)N[C@@H](Cc1ccccc1)C(=O)O` [analog 3, Tyr-Inp-Leu-Asp-Leu-Phe-OH] (H-Y[Inp]LDLF-OH), on µ-opioid receptor [1], the “µ-opioid receptors pEC50 (CL95%)” value is given as “Inactive” and the “µ-opioid receptors α ± SEM” value is “Inactive”. At δ-opioid receptor, the “δ-opioid receptors pEC50 (CL95%)” value was “Inactive” and the “δ-opioid receptors α ± SEM” value is “Inactive”. Further, the half-life at 0.25 mM in series [2] came out at 28.6 ± 0.95 min. Also, on κ-opioid receptor, the Ki is more than 1 µM. In addition, at µ-opioid receptor [3], the Ki was more than 1 µM.
With “YPLDLF-NH2 [analog 6, Tyr-Pro-Leu-Asp-Leu-Phe-NH2]”, on µ-opioid receptor [1], the “µ-opioid receptors pEC50 (CL95%)” value is “Inactive” and the “µ-opioid receptors α ± SEM” value is given as “Inactive”. Moreover, on δ-opioid receptor, the “δ-opioid receptors pEC50 (CL95%)” value is recorded as “Inactive” and the “δ-opioid receptors α ± SEM” value is “Inactive”. In series [2], the half-life at 0.25 mM was found to be 23.2 ± 1.05 min. On κ-opioid receptor, the Ki is more than 1 µM. Moreover, at µ-opioid receptor [3], the Ki is more than 1 µM.
In the case of `Cc1cc(O)cc(C)c1C[C@H](N)C(=O)N1CCC(C(=O)N[C@@H](CC(C)C)C(=O)N[C@@H](CC(=O)O)C(=O)N[C@@H](CC(C)C)C(=O)N[C@@H](Cc2ccccc2)C(=O)O)CC1` [analog 5, Dmt-Inp-Leu-Asp-Leu-Phe-OH] (H-[Dmt][Inp]LDLF-OH), on µ-opioid receptor [1], the “µ-opioid receptors α ± SEM” value came out at 0.11 ± 0.04 and the EC50 was 7.59 µM. Further, at δ-opioid receptor, the “δ-opioid receptors α ± SEM” value is given as 0.39 ± 0.02 and the EC50 is 22.4 µM. In addition, the half-life at 0.25 mM in series [2] turned out to be 38.5 ± 0.7 min. Further, at κ-opioid receptor, the Ki is more than 1 µM. In addition, the Ki on µ-opioid receptor [3] was 0.712 ± 0.101 µM.
Consider `Cc1cc(O)cc(C)c1C[C@H](N)C(=O)N1CCC[C@H]1C(=O)N[C@@H](CC(C)C)C(=O)N[C@@H](CC(=O)O)C(=O)N[C@@H](CC(C)C)C(=O)N[C@@H](Cc1ccccc1)C(=O)O` [analog 1, Dmt-Pro-Leu-Asp-Leu-Phe-OH] (H-[Dmt]PLDLF-OH), for which, on µ-opioid receptor [1], the “µ-opioid receptors α ± SEM” value came out at 0.22 ± 0.05 and the EC50 is 2 µM. Further, on δ-opioid receptor, the “δ-opioid receptors pEC50 (CL95%)” value is “Inactive” and the “δ-opioid receptors α ± SEM” value is “Inactive”. The half-life at 0.25 mM in series [2] was 20.8 ± 0.85 min. In addition, at κ-opioid receptor, the Ki is more than 1 µM. Besides, at µ-opioid receptor [3], the inhibitory constant (Ki) turned out to be 0.599 ± 0.0845 µM.
`Cc1cc(O)cc(C)c1C[C@H](N)C(=O)N1CCC[C@@H](C(=O)N[C@@H](CC(C)C)C(=O)N[C@@H](CC(=O)O)C(=O)N[C@@H](CC(C)C)C(=O)N[C@@H](Cc2ccccc2)C(=O)O)C1` [analog 4, Dmt-(R)-Nip-Leu-Asp-Leu-Phe-OH] (H-[Dmt][Nip(3R)]LDLF-OH): at µ-opioid receptor [1], the “µ-opioid receptors pEC50 (CL95%)” value is reported as “Inactive” and the “µ-opioid receptors α ± SEM” value is reported as “Inactive”. For the same compound, at δ-opioid receptor, the “δ-opioid receptors pEC50 (CL95%)” value was “Inactive” and the “δ-opioid receptors α ± SEM” value is recorded as “Inactive”. The half-life at 0.25 mM in series [2] came out at 30.4 ± 1.2 min. On κ-opioid receptor, the Ki is more than 1 µM. Further, the Ki at µ-opioid receptor [3] is more than 1 µM.
Take `CC(C)C[C@H](NC(=O)C1CCN(C(=O)[C@@H](N)Cc2ccc(O)cc2)CC1)C(=O)N[C@@H](CC(=O)O)C(=O)N[C@@H](CC(C)C)C(=O)N[C@@H](Cc1ccccc1)C(N)=O` [analog 7, Tyr-Inp-Leu-Asp-Leu-Phe-NH2] (H-Y[Inp]LDLF-NH2): on µ-opioid receptor [1], the “µ-opioid receptors pEC50 (CL95%)” value is listed as “Inactive” and the “µ-opioid receptors α ± SEM” value was “Inactive”. Moreover, on δ-opioid receptor, the “δ-opioid receptors pEC50 (CL95%)” value is on record as “Inactive” and the “δ-opioid receptors α ± SEM” value is recorded as “Inactive”. In addition, in series [2], the half-life at 0.25 mM is 30.7 ± 0.35 min. Besides, the Ki at κ-opioid receptor is more than 1 µM. Also, the Ki at µ-opioid receptor [3] is more than 1 µM.
